# B1: rh-sTRAIL: recombinant human soluble TRAIL, from R&D Systems (protein, UniProt P50591 39-281, looked up)
# extracellular domain: TNELKQMQDKYSKSGIACFLKEDDSYWDPNDEESMNSPCWQVKWQLRQLVRKMILRTSEETISTVQEKQQNISPLVRERGPQRVAAHITGTRGRSNTLSSPNSKNEKALGRKINSWESSRSGHSFLSNLHLRNGELVIHEKGFYYIYSQTYFRFQEEIKENTKNDKQMVQYIYKYTSYPDPILLMKSARNSCWSKDAEYGLYSIYQGGIFELKENDRIFVSVTNEHLIDMDHEASFFGAFLVG
# modifications: extracellular domain
# notes: recombinant human soluble TRAIL, from R&D Systems
# Legend:
# Type in all cases: cell-based, human
# mTRAIL = assay: Cell-surface mTRAIL (CD253) level by flow cytometry on T4EM lymphocytes; settings: 80 μg/ml
# Excerpt: TRAIL can be soluble (sTRAIL) or membrane-bound (mTRAIL)(Schneider et al., 1998, J. Exp. Med. 187:1205-1213; Wajant et al., 2001, Oncogene. 20:4101-4106). Under the experimental conditions used for radiation-induced apoptosis of T4EM lymphocytes, the levels of sTRAIL in media were below sandwich ELISA detection level (<20 pg/ml; data not shown). The inventors thus focused their study on mTRAIL. Using a monoclonal antibody panel comprising CD253, they measured the level of cell-surface mTRAIL expression by flow cytometry. A four-fold higher expression of mTRAIL was found on T4EM lymphocytes of “sensitive” compared to “resistant” samples (FIG. 3 A). […]
# (§1) Treated cells were collected and washed with AnnexinV buffer (140mM NaCl, 5mM CaCl2, 10 mM HEPES; ph7.4), and stained with 2.5 μl AnnexinV-FITC in combination with fluorochrome-conjugated CD markers in 100 ul for 30 min. […] For CD253 (mTRAIL) quantification, a compact panel designed to limit the need for compensation including AnnexinV, CD253, CD3, CD4, and CD62L was used.
# Cells were washed in AnnexinV-buffer and just prior flow cytometry, 50 μL of AnnexinV-buffer containing 0.2 μg/mL Hoechst 33258 (Molecular Probes, Eugene, Oreg.), was added for dead cell exclusion. Samples were analyzed using a three-laser CyAn LX system, (DakoCytomation, Fort Collins, Colo.) or a 5-laser SORP LSRII (Becton Dickinson). […]
# TRAIL-receptor DR5 = assay: Expression of proapoptotic TRAIL-receptor DR5 in T4EM lymphocytes; settings: after 1,10-phenanthroline treatment; data not shown
# Excerpt: All fluorochrome-coupled monoclonal antibodies were used at saturating conditions, as determined by titrations. Anti-human CD antibodies came from Becton Dickinson ImmunoCytometry Systems (CD62L-PE, CD62L-PECy5.1, CD14-PECy5.1, CD-235a-PECy5.1, CD27-PECy5.1, CD4-PECy7, CD19-PECy7, CD45RA-APC, CD8-APCH7), from Beckman Coulter (CD3-PETxR) from Biolegend (CD253/TRAIL-PE, CD62L- BV421, CD3-BV605), or from R&D Systems (CD262/DR5-APC). Recombinant human soluble TRAIL (rh-sTRAIL) and recombinant human soluble DR5 ([…] was from R&D Systems, AnnexinV-FITC from Becton Dickinson, and 1,10-phenanthroline from Sigma-Aldrich.
# T4EM lymphocytes [1] = assay: 1,10-phenanthroline induced apoptosis of T4EM lymphocytes (AnnexinV); settings: for Effect on 1,10-phenanthroline induced apoptosis of T4EM lymphocytes: 80 μg/ml 1,10-phenanthroline, 2 hours, 4 μg/ml rh-sTRAIL or rh-sDR5
# Procedure: Cell suspensions at approximately 5×10^5 cells/ml (or at cell densities specified in the results section) in RPM11640/15% FCS, were irradiated at a dose rate of approximately 0.5 Gy/min with a ^137Cs-source (IBL637; Cis-Bio international/Scherring, Saclay, France), where incubated in the presence of indicated concentrations of recombinant human soluble TRAIL (rh-sTRAlL), recombinant human soluble DR5 (rh-sDR5), anti-TRAIL cytotoxicity-blocking antibody (CD253; clone RIK-2), or of 1,10-phenanthroline (stock solution of 200 mM in DMSO). All experiments described were performed with the same batch of heat inactivated FCS, previously tested for compatibility with our experimental procedures. Incubations of 18 hours or less as specified in results section were at 37° C. and 5% CO2.
# as §1
# Cells were washed in AnnexinV-buffer and just prior flow cytometry, 50 μL of AnnexinV-buffer containing 0.2 μg/mL Hoechst 33258 (Molecular Probes, Eugene, Oreg.), was added for dead cell exclusion. Samples were analyzed using a three-laser CyAn LX system, (DakoCytomation, Fort Collins, Colo.) or a 5-laser SORP LSRII (Becton Dickinson). […] All fluorescence signals were log-amplified, and stored in listmode. CompBeads (Becton Dickinson) were used to assist in determination of spill-over in every individual experiment (CD3-FITC was used instead of AnnexinV-FITC) and Fluorescence Minus One (FMO) controls were used where needed, in particular for mTRAIL quantifications (SortWare; Becton Dickinson or Flowjo version 9.6.4; Treestar, Ashland, Oreg.). […]
# Data was analyzed using Flowio. […] Subsequently, dead cells were excluded on the basis of HO33258 fluorescence. T Lymphocytes were identified on the basis of positive PETxR (CD3) fluorescence. […]
# T4EM lymphocytes [2] = assay: Radiation-induced apoptosis of T4EM lymphocytes (AnnexinV labeling, flow cytometry); settings: 0.4 μg/ml rh-sTRAIL, 18 hours after irradiation at 0, 0.5, 1, 2 Gy
# Excerpt: The sensitivity of subpopulations of human T-lymphocytes to ionizing radiation-induced apoptosis was quantified eighteen hours after irradiation (0-2 Gy) of PBMC samples of healthy blood donors using the previously defined radio sensitivity assay based on immunophenotyping and AnnexinV-labeling. […] Exponential regression coefficients of dose-survival curves were used to classify human PBMC samples according to the radio sensitivity of their T4EM lymphocyte subpopulation, and “sensitive” and “resistant” samples were defined at the two ends of the T4EM radio sensitivity phenotype distribution. […]
# as §1
# Cells were washed in AnnexinV-buffer and just prior flow cytometry, 50 μL of AnnexinV-buffer containing 0.2 μg/mL Hoechst 33258 (Molecular Probes, Eugene, Oreg.), was added for dead cell exclusion. Samples were analyzed using a three-laser CyAn LX system, (DakoCytomation, Fort Collins, Colo.) or a 5-laser SORP LSRII (Becton Dickinson). […] All fluorescence signals were log-amplified, and stored in listmode. […]
Expression of proapoptotic TRAIL-receptor DR5 (TRAIL-receptor DR5),Molecule,"mTRAIL level in treated ""resistant"" samples versus untreated ""sensitive"" samples (mTRAIL; 2 hours)","mTRAIL expression in T4EM lymphocytes (mTRAIL; two hours after addition, ""resistant"" and ""sensitive"" samples)","Induction of apoptosis in T4EM lymphocytes (T4EM lymphocytes [1]; 80 μg/ml, two hours, no irradiation)","Effect on 1,10-phenanthroline induced apoptosis of T4EM lymphocytes (T4EM lymphocytes [1])",Effect on autocrine pro-apoptotic mode of action of mTRAIL in irradiated T4EM lymphocytes (T4EM lymphocytes [2])
increased expression,"c1cnc2c(c1)ccc1cccnc12 [1,10-phenanthroline]",always remained lower,increase of mTRAIL expression,rapid induction of apoptosis,,
,rh-sDR5: recombinant human soluble DR5 receptor,,,,inhibited,
,B1,,,,inhibited,abolished

# From patent publication US20180363057A1, “METHOD FOR EVALUATING INDIVIDUAL RADIOSENSITIVITY AND THE RISK OF ADVERSE EFFECTS” (COMMISSARIAT A L'ENERGIE ATOMIQUE ET AUX ENERGIES …, priority 2015, published 2018)
